Laboratory results from US20060280725A1, “Compositions and methods of treating and diagnosing hepatoma” (priority 2003, published 2006).

What was measured:
[1] = system: SK-Hep cells; assay: Na+-dependent glutamine transport assay in SK-Hep cells and transfected clones; assay type: cell-based, human; conditions: SK-Hep parent cells
Description: FIG. 10. Effect of induced ATB0/ASCT2 antisense RNA expression on Na^+-dependent glutamine uptake. Cultures of the SK-Hep parent cell line and SK-Hep cells stably transfected with a 1.3 kb ATB^0 construct in the sense orientation (Sense 2-1) or antisense orientation (Antisense 1-1) were treated with inducer (MFP, 10 nM) or vehicle (ethanol, 0.1%) at time zero. At the indicated times thereafter, the initial rate (30 s) Na^+-dependent transport velocity of 50 μM L-glutamine was measured by radiotracer analysis as described in the methods section. The results represent the average±SD of four separate determinations. *p<0.050 versus control. **p<0.010 versus control.
Glutamine Transport Assays. Measurement of initial-rate Na^+-dependent glutamine uptake was performed by radiotracer analysis using the cluster tray method described in detail previously (57). Initial rate transport velocities are expressed as the average±SD of at least four separate determinations. The transport data was analyzed for significant differences using a t-test with a p<0.050 considered significant.
Inpact of antisense ATB^0/ASCT2 RNA on glutamine transport rates. In order to determine the functional effect of targeting ATB^0/ASCT2 mRNA, glutamine transport rates were measured.

[2] = system: SK-Hep cells; assay: Cellular quantification (hemacytometer cell number, viability); assay type: cell-based, human; conditions: treatment with MFP
Description: FIG. 11. Effect of induced antisense RNA expression and glutamine deprivation on cellular proliferation and viability. Cultures of SK-Hep cells stably transfected with a 1.3 kb ATB^0 construct in the antisense orientation (Antisense 1-1) were treated at time zero with either inducer (FP, 10 nM), vehicle (ethanol, 0.1%) or maintained in the presence (+GLN) or absence (−GLN) of glutamine (DMEM+10% dialyzed FBS±2 mM L-GLN). At the indicated times thereafter, cell number was calculated after trypsmization and subsequent counting on a hemacytometer. The results represent the average±SD of five separate determinations. **p<0.010 versus-MFP. ††p<0.010 versus+GLN. […]
Cellular Quantification. Initial screens of the stably transfected sense and antisense ATB^0/ASCT2 clones to MFP induction utilized the colorimetric MTT (3-[4,5-Dimethylthiazol-2-yl]-2,5-diphenyltetrazolium bromide (Sigma)) assay as previously described (57), using a spectrophotometric plate reader at a wavelength of 562 nm (Bio-Tek EL311SX, Winooski, Vt.). The absorbance is considered to be directly proportional to the number of metabolically active mitochondria, and by extension, the number of cells. In subsequent studies, cell number was quantified directly. At specific times after experimental treatment (±MFP or ±glutamine), cells were removed from the culture dish via trypsinization and quantified on a hemacytometer. […]

[3] = system: Hep3B, PLC/PRF/5, Focus and THLE-5B cell lines; assay: Amino acid inhibition analysis of Na+-dependent glutamine transport; assay type: cell-based, human; conditions: for inhibition at 5000 µM: Homo sapiens, unlabeled amino acid at 5 mM, 50 μM L-glutamine, Hep3B, PLC/PRF/5, Focus, THLE-5B, read-out: inhibition of glutamine uptake
Description: (§1) FIG. 1. Amino acid inhibition analysis of glutamine transport in the Hep3B, PLC/PRF/5 and Focus human hepatoma cell lines and the THLE-5B SV40-immortalized human liver epithelial cell line. The Na^+-dependent transport of 50 μM L-glutamine was measured as described in the Methods section in the absence or presence of the indicated unlabeled amino acids at 5 mM. Testing of cysteine (CYSH) required the presence of 5 mM dithiothreitol (DTT) as a reducing agent, so DTT was tested alone as well. Arrows indicate the relative transport rates for 50 μM L-glutamine in primary human adult (solid arrow) and fetal (open arrow) hepatocytes. The results represent the average±SD of four separate determinations (*p<0.010 versus control). The Eadie-Hofstee plots of the kinetic analyses are shown as an inset in each figure, with the dashed lines representing the resolved high and low affinity components of the composite data (solid line). The derived values of the kinetic constants for each component are given in the Results section.
Glutamine Transport Assays. Measurement of initial-rate glutamine uptake was carried out via the cluster-tray method originally described by Gazzola (21) as reported previously (6, 9). Briefly, after trypsinization hepatoma cells were plated at a density of 1×10^5 cells/well in 24-well culture plates (Costar Corp., Cambridge, Mass.) and allowed to grow to >80% confluence, typically one to two days later. For initial-rate measurements, the radiotracer utilized was L-[G-^3H] glutamine (Amersham Corp., Arlington Heights, Ill.) at 4 μCi/ml, in the presence of unlabeled L-glutamine at 50 μM. For kinetic studies, the amount of unlabeled glutamine in the transport buffer varied from 10 μM to 10 mM. All transport measurements were carried out at 37° C. and were terminated after 30 s by three rapid washes with an ice-cold phosphate-buffered saline solution. Intracellular radiolabeled glutamine was extracted with 0.2 ml/well of 0.2% sodium dodecyl sulfate (SDS) and 0.2 N NaOH; after 1 h, 0.1 ml of the lysate was neutralized with 10 μl of 2 N HCl and subjected to scintillation spectrophotometry in a Packard TopCount™ (Packard Instruments, Meriden, Conn.). The remaining lysate was utilized for the determination of cellular protein by the bicinchoninic acid (BCA) method (Pierce Chemical Co., Rockford, Ill.). Rates of glutamine transport were calculated from the cpm per sample, the specific activity of the uptake mix (in cpm/nmol) and normalized to cellular protein content in a Microsoft Excel® spreadsheet program. Transport values obtained in the absence of extracellular Na^+ (diffusion and Na^+-independent uptake) were subtracted from those in the presence of Na^+ (total uptake) to yield Na^+-dependent rates which are reported in units of nmol•mg^−1 protein•30 s^−1. […]

[4] = system: THLE-5B; assay: Glutamine transport assay (inhibition and kinetic analysis); assay type: cell-based, human; conditions: 5 mM, 50 μM L-glutamine, p<0.050
Description: as §1
(§2) Glutamine Transport Assays. Measurement of initial-rate glutamine uptake was carried out via the cluster-tray method originally described by Gazzola (21) as reported previously (6, 9). Briefly, after trypsinization hepatoma cells were plated at a density of 1×10^5 cells/well in 24-well culture plates (Costar Corp., Cambridge, Mass.) and allowed to grow to >80% confluence, typically one to two days later. For initial-rate measurements, the radiotracer utilized was L-[G-^3H] glutamine (Amersham Corp., Arlington Heights, Ill.) at 4 μCi/ml, in the presence of unlabeled L-glutamine at 50 μM. For kinetic studies, the amount of unlabeled glutamine in the transport buffer varied from 10 μM to 10 mM. All transport measurements were carried out at 37° C. and were terminated after 30 s by three rapid washes with an ice-cold phosphate-buffered saline solution. Intracellular radiolabeled glutamine was extracted with 0.2 ml/well of 0.2% sodium dodecyl sulfate (SDS) and 0.2 N NaOH; after 1 h, 0.1 ml of the lysate was neutralized with 10 μl of 2 N HCl and subjected to scintillation spectrophotometry in a Packard TopCount™ (Packard Instruments, Meriden, Conn.). The remaining lysate was utilized for the determination of cellular protein by the bicinchoninic acid (BCA) method (Pierce Chemical Co., Rockford, Ill.). Rates of glutamine transport were calculated from the cpm per sample, the specific activity of the uptake mix (in cpm/nmol) and normalized to cellular protein content in a Microsoft Excel® spreadsheet program. Transport values obtained in the absence of extracellular Na^+ (diffusion and Na^+-independent uptake) were subtracted from those in the presence of Na^+ (total uptake) to yield Na^+-dependent rates which are reported in units of nmol•mg^−1 protein•30 s^−1. All transport values depicted are the average±standard deviation of four separate determinations. Kinetic analysis of Eadie-Hofstee linearized transport data (v vs. v/[L-GLN]) was performed by regression analysis (Cricket Graph®, Computer Associates, Islandia, N.Y.). Nonlinear regression analysis was performed with DataDesk (Data Description, Inc. Ithaca, N.Y.) and Excel for two component Michaelis-Menten kinetics: v=((Vmax1×[S])/(Km1+[S])+(Vmax2×[S])/(Km2+[S])).
It should be noted that extensive depletion of intracellular amino acid pools were not performed prior to transport measurements in these studies because we sought to assess glutamine uptake under more physiological conditions. […]

[5] = system: human fetal liver fibroblasts (HFLF); assay: as above; assay type: cell-based; conditions: 5 mM, 50 μM L-glutamine
Description: FIG. 5. Functional and molecular assessment of ATB^0 expression in human fetal liver fibroblasts (HFLF) and cirrhotic liver tissue. A) Amino acid inhibition analysis of Na^+-dependent glutamine uptake in human fetal liver fibroblasts. Fibroblasts were isolated and cultured as described in the Methods section, and amino acid inhibition analysis of 50 μM L-glutamine uptake was carried out as described in FIG. 1. *p<0.010 vs. control. The Eadie-Hofstee plot of the kinetic analysis is shown as an inset, with the dashed lines representing the resolved high and low affinity components of the composite data (solid line). The derived values of the kinetic constants for each component are given in the Results section. B) Northern blot analysis of ATB^0 expression in HFLF. Radiolabeled cDNA probes were generated with the Megaprime™ kit as described in the Methods section, and hybridized to 20 μg of total RNA from HFLF. Exposure time was 24 h. C) RT-PCR and restriction enzyme analysis of ATB^0 expression in HFLF, normal and cirrhotic liver. The analysis was carried out exactly as described in FIG. 3. Omission of RT is shown for the normal liver sample. D) Expression of ATB^0 in biopsies from a patient with liver cirrhosis and hepatocellular carcinoma (HCC). Northern blot analysis of ATB^0 & SN1 expression were performed on RNA extracted from the snap-frozen biopsies. RNA isolation and northern blot analysis was carried out as described in the Methods section, with full-length riboprobes used for detection of transporter mRNA. Exposure times for the blots are shown to illustrate relative expression levels for ATB^0 in each of the samples.
as §2, with “v=((Vmax1×[S])/(Km1+[S])+(Vmax2×[S])/(Km2+[S])). […]” for “v=((Vmax1×[S])/(Km1+[S])+(Vmax2×[S])/(Km2+[S])).”

[6] = system: SK-Hep cells; assay: Poly IC treatment of SK-Hep cells (growth, viability, apoptosis); assay type: cell-based, human
Description: Possible role of a PKR response in hepatoma apoptosis. Given the marked effect of induced ATB^0/ASCT2 antisense RNA expression on hepatoma viability and apoptosis, the possibility that the transporter knockdown response was a nonspecific double stranded RNA-dependent protein kinase (PKR) (62) mediated event was considered. To this end, cells were treated with Polyriboinosinic-polyribocytidylic acid (poly IC)—a mimic of double stranded RNA and stimulator of PKR in mammalian cells.
The mechanism leading from ATB^0/ASCT2 inhibition to apoptosis is unclear, but is currently being investigated. As we ruled out a nonspecific double stranded RNA (PKR) response (FIG. 14), we hypothesize that another cellular stress pathway links transporter suppression to apoptosis. Specifically, oxidative stress may be involved due to the likely loss of the antioxidant glutathione after diminution of its precursor glutamine (65, 66). PKR phosphorylates the α chain of the eukaryotic translation initiation factor eIF2 inhibiting the guanine nucleotide exchange factor eIF2B and turning off protein synthesis. In this respect, the selective expression of ATB^0/ASCT2 in cancerous versus normal human liver cells remains important since tumor-specific activation of PKR has recently been used to inhibit glioma growth in vivo [68]. […]

Molecule | inhibition of Na+-dependent glutamine uptake [5] | inhibition at 5000 µM [3] | other results
CC#C[C@]1(O)CC[C@H]2[C@@H]3CCC4=CC(=O)CCC4=C3[C@@H](c3ccc(N(C)C)cc3)C[C@@]21C [MFP, mifepristone] | – | – | decrease in glutamine transport rates ([1]; 14 h MFP 10 nM, p<0.050, not reproduced in subsequent studies): 23%; decrease in glutamine transport rates ([1]; 24 h MFP): not observed; growth of the SK-Hep parent cell line [2]: unaffected
CNC(C)(C)C(=O)O [MeAIB, alpha-(methylamino)isobutyric acid, reference compound] | not | – | inhibition of glutamine uptake ([3]; 5 mM, all cell lines except THLE-5B): failed to significantly inhibit glutamine uptake; diminished glutamine uptake [4]: 29%
C[C@H](N)C(=O)O [alanine, reference compound] | marked inhibition | > 80% | –
N[C@@H](CS)C(=O)O [cysteine, reference compound] | marked inhibition | > 80% | –
N[C@@H](CO)C(=O)O [serine, reference compound] | marked inhibition | > 80% | –
Polyriboinosinic-polyribocytidylic acid [poly IC] | – | – | apoptotic response in SK-Hep cells [6]: failed to elicit the apoptotic response; growth or viability of SK-Hep cells [6]: failed to impact growth or viability
